Results as given in paper PMC2981568 (PLoS ONE, 2010).

Assays:
[1] = target: T1, MtbPRPPase (phosphoribosylpyrophosphate synthetase) (Mycobacterium tuberculosis, UniProt P9WKE3); assay: biochemical
T1 construct: gene prs

[2] = target: T1, MtbPRPPase (phosphoribosylpyrophosphate synthetase); assay: […]; inhibition curve and steady-state kinetics ([…] Pi; IC50 […] at […] Pi); assay type: biochemical
SEC = target: the molecule itself; assay: SEC

Nc1nc2c(ncn2[C@@H]2O[C@H](COP(=O)(O)OP(=O)(O)O)[C@@H](O)[C@H]2O)c(=O)[nH]1 [GDP]
IC50 [1]: > 5000 µM

Nc1ncnc2c1ncn2[C@@H]1O[C@H](COP(=O)(O)OP(=O)(O)O)[C@@H](O)[C@H]1O [ADP]
IC50 [2]: 400 µM

B1: Mycobacterium tuberculosis phosphoribosylpyrophosphate synthetase (enzyme)
chain: MSHDWTDNRKNLMLFAGRAHPELAEQVAKELDVHVTSQDAREFANGEIFVRFHESVRGCDAFVLQSCPAPVNRWLMEQLIMIDALKRGSAKRITAVMPFYPYARQDKKHRGREPISARLIADLLKTAGADRIVTVDLHTDQIQGFFDGPVDHMRGQNLLTGYIRDNYPDGNMVVVSPDSGRVRIAEKWADALGGVPLAFIHKTRDPRVPNQVVSNRVVGDVAGRTCVLIDDMIDTGGTIAGAVALLHNDGAGDVIIAATHGVLSDPAAQRLASCGAREVIVTNTLPIGEDKRFPQLTVLSIAPLLASTIRAVFENGSVTGLFDGDA
notes: also called MtbPRPPase; M. tuberculosis PRPPase; not shown: His6, N-terminal, kept
stoichiometry N (SEC): 6
